In patent US9963472B2, “Stable pantetheine derivatives for the treatment of pantothenate kinase associated neurodegeneration (PKAN) and methods for the synthesis of such compounds” (ACIES BIO D.O.O., priority 2013, dated 2018):

Experiments:
[1] = test system: dPANK/fbl down-regulated Drosophila-S2 cells; experiment: Rescue of cell survival in dPANK/fbl RNAi Drosophila S2 cells (PKAN cell model); format: cell-based; conditions: 100 μM; for rescue of cell count defect (cell survival): triplicate
Text: The down-regulation of […] ortholog in Drosophila) using RNAi approach in Drosophila S2 cells is an established in-vitro PKAN disease model (Rana, A. et al., PNAS, 2010, 107, 6988; Siudja et al., EMBO Mol med. 2011, 3, 755; Siudeja et al., PLoS One 2012, 7, e443145). Down-regulation of dPANK/fbl by RNAi, causes a decrease in the survival of cells. […] Materials and Methods: […]

[2] = test system: HEK293 cells treated with HOPAN; experiment: Rescue of HEK293 cells in HOPAN induced PKAN model; format: cell-based, human; conditions: 100 μM, HOPAN 0.5 mM, 4 days, HEK293, vitamin B5 deficient DMEM
Method: Similar to Drosophila-S2 cells, the PKAN disease model can also be induced using HOPAN in mammalian cell lines. Rescue efficiency of (S)-acetyl-4′-phosphopantetheine and 4′-phosphopantetheine was studied in HOPAN induced PKAN model system, namely in mammalian HEK293 cells.
Materials and Methods: HEK293 cells were cultured in vitamin B5 deficient DMEM (Thermo Scientific) supplemented with 10% dialysed FCS (Thermo Scientific) with and without HOPAN (0.5 mM) and (S)-acetyl-4′-phosphopantetheine and 4′-phosphopantetheine for 4 days. 100 μM of (S)-acetyl-4′-phosphopantetheine and 4′-phosphopantetheine was compared for its rescue efficiency.

Human HEK293 cells = experiment: Cellular toxicity (drop in cell counts) in HEK293 cells; format: cell-based; conditions: increasing concentrations
protein acetylation = experiment: Rescue of protein acetylation defect in PKAN models; format: cell-based
Text: For a variety of diseases HDAC inhibitors are being used and specifically the valproic acid is currently used in diseases ranging from cancer, to epilepsy, to neurodegeneration. The disadvantage is that valproic acid has severe side effects.

[3] = test system: Drosophila-S2 cells treated with HOPAN; experiment: Rescue in HOPAN assay, Drosophila S2 cells; format: cell-based; conditions: 100 μM, HOPAN 0.5 mM, two days
Method: In an additional experiment, Drosophila-S2 cells treated with the chemical inhibitor HOPAN (hopanthenate, CAS 17097-76-6, IUPAC: calcium 4-[[(2R)-2,4-dihydroxy-3,3-dimethylbutanoyl]amino]butanoate). Cells treated with HOPAN also serve as a model for PKAN. Cells treated with HOPAN also show a reduction in cell viability.
Materials and Methods: Drosophila Schneider's S2 cells were cultured and subjected to HOPAN (0.5 mM) treatment with and without (S)-acetyl-4′-phosphopantetheine and 4′-phosphopantetheine for two days (Siudeja. K. et al., EMBO Mol Med. 2011, 3, 755). 100 μM of (S)-acetyl-4′-phosphopantetheine and 4′-phosphopantetheine was compared for its rescue efficiency.

Molecule: CC(C)(COP(=O)(O)O)[C@@H](O)C(=O)NCCC(=O)NCCS [4′-phosphopantetheine]
- rescue of cell count defect (cell survival) [1]: rescued the cell count defect significantly
- reduction of HOPAN induced cell count defect [2]: significantly reduced the HOPAN induced cell count defect
- toxicity (drop in cell counts) (Human HEK293 cells): less toxic compared to pantethine

Molecule: CCCC(CCC)C(=O)O [valproic acid]
- rescue of protein acetylation defect (protein acetylation): rescue the protein acetylation defect

Molecule: CC(/C=C/C(=O)NO)=C\[C@@H](C)C(=O)c1ccc(N(C)C)cc1 [Trichostatin A]
- rescue of protein acetylation defect (protein acetylation): rescue the protein acetylation defect

Molecule: (S)-acetyl-4′-phosphopantetheine
- rescue potential compared to the other compounds [1]: superior rescue potential as compared to pantethine and 4′-phosphopantetheine
- rescue of cell count defect (cell survival) [1]: rescued the cell count defect significantly
- rescue of HOPAN induced cell count defect [3]: significantly rescued
- reduction of HOPAN induced cell count defect [2]: significantly reduced the HOPAN induced cell count defect
- toxicity (drop in cell counts) (Human HEK293 cells): less toxic compared to pantethine
